What all share (assay type): biochemical
For experiment [1], the system named is trypsin. Put plainly: Trypsin inhibition, EnzChek protease assay, mixtures of talc with divalent cation salts. As to the method:
The objective of the following experiment was to determine whether and to what extent adding a divalent cation to talc inhibited trypsin activity in an in vitro assay. The inhibition of trypsin-induced cleavage of a fluorescent casein peptide was measured using the EnzChek™ protease assay kit, following manufacturer's instructions (EnzChek™ Protease Assay Kits Product Information, Revised; Molecular Probes, Eugene Oreg.). […] Trypsin working solution (Sigma, St. Louis, Mo., unit/mL) was prepared in digestion buffer provided in the assay kit. Stock solution of BODIPY FL casein (trypsin substrate, mg/mL) was prepared by adding 0.2 mL to the substrate vials (provided in kit), and the final substrate working solution (10 microgram/mL) was prepared by dilution in digestion buffer (pH 7.8). Following incubation of the trypsin, with or without the test materials, with the BODIPY fluorescent casein substrate, at room temperature for one hour, fluorescence was measured (excitation 485 nm/emission 530 nm) using a SpectraMax microtiter plate reader (Molecular Devices Corporation, Sunnyvale, Calif.) and Softmax Pro software (Molecular Devices Corporation). Each experiment was performed in three replicates.

The test system of experiment [2] is trypsin. The experiment is described as follows: Trypsin inhibition, EnzChek protease assay, zinc oxide/acid mixtures and formulations. Particulars: text b134 on Table 5. Here is the method:
The objective of the following experiment was to determine whether and to what extent adding an acid to a formulation containing zinc oxide had on inhibition of trypsin activity in an in vitro assay. The inhibition of trypsin-induced cleavage of a fluorescent casein peptide was measured using the EnzChek™ protease assay kit, following manufacturer's instructions (EnzChek™ Protease Assay Kits Product Information, Revised; Molecular Probes, Eugene Oreg.). Briefly, mixtures of zinc oxide and acid at different concentrations were prepared in 1×PBS (pH 7.4) and their pH was recorded as listed in the Tables 5-8. Trypsin working solution (Sigma, St. Louis, Mo., unit/mL) was prepared in digestion buffer provided in the assay kit. Stock solution of BODIPY FL casein (trypsin substrate, mg/mL) was prepared by adding 0.2 mL to the substrate vials (provided in kit), and the final substrate working solution (10 microgram/mL) was prepared by dilution in digestion buffer (pH 7.8). Following incubation of the trypsin, with or without the test materials (50 μl), with the BODIPY fluorescent casein substrate, at room temperature for one hour, fluorescence was measured (excitation 485 nm/emission 530 nm) using a SpectraMax microtiter plate reader (Molecular Devices Corporation, Sunnyvale, Calif.) and Softmax Pro software (Molecular Devices Corporation). Each experiment was performed in three replicates. […]

Experiment [3] deals with trypsin. Put plainly: Trypsin inhibition, EnzChek protease assay (BODIPY FL casein cleavage), cation salts. Particulars: Table 1. As to the method: The inhibition of trypsin-induced cleavage of a fluorescent casein peptide was measured using the EnzChek™ protease assay kit, following manufacturer's instructions (EnzChek™ Protease Assay Kits Product Information, Revised; Molecular Probes, Eugene Oreg.). Briefly, test materials at different concentrations were prepared in 1× phosphate buffered saline (PBS, pH 7.4). Trypsin working solution (Sigma, St. Louis, Mo., unit/mL) was prepared in digestion buffer provided in the assay kit. Stock solution of BODIPY FL casein (trypsin substrate, mg/mL) was prepared by adding 0.2 mL to the substrate vials (provided in kit), and the final substrate working solution (10 microgram/mL) was prepared by dilution in digestion buffer (pH 7.8). […] Each experiment was performed in three replicates.

In the case of `CC(=O)[O-].CC(=O)[O-].O.[Ca+2]` [Calcium acetate monohydrate], the “Salt alone, trypsin inhibition activities (%)” value in experiment [1] (Table 3, 0.1% (g/mL)) is recorded as 15.31%.

`[Ca+2].[Cl-].[Cl-]` [Calcium chloride]: the “Salt alone, trypsin inhibition activities (%)” value in experiment [1] (Table 3, 0.1% (g/mL)) was found to be 17.95%.

For `O.O.O.O.[Cl][Fe][Cl]` [Iron (II) chloride tetrahydrate], the “Salt alone, trypsin inhibition activities (%)” value in experiment [1] (Table 3, 0.1% (g/mL)) was 65.07%.

Take `CC(=O)[O-].CC(=O)[O-].O.O.O.O.[Mg+2]` [Magnesium acetate tetrahydrate]: the “Salt alone, trypsin inhibition activities (%)” value in experiment [1] (Table 3, 0.1% (g/mL)) is given as 0.83%.

In the case of `[Cl-].[Cl-].[Mg+2]` [Magnesium chloride], the “Salt alone, trypsin inhibition activities (%)” value in experiment [1] (Table 3, 0.1% (g/mL)) was 4.75%; in experiment [1] (Table 4, 0.1% MgCl2 (g/mL)), 9.02%; in experiment [1] (Table 4, 0.5% MgCl2 (g/mL)), 19.51%; in experiment [1] (Table 4, 1% MgCl2 (g/mL)) it was 22.13%. For the same molecule, the “With 1% Talc, trypsin inhibition activities (%)” value in experiment [1] (Table 4, 0.1% MgCl2 with 1% talc (g/mL)) is recorded as 25.43%; in experiment [1] (Table 4, 0.5% MgCl2 with 1% talc (g/mL)), 32.84%; in experiment [1] (Table 4, 1% MgCl2 with 1% talc (g/mL)), 40.42%. The “trypsin inhibitory activity, in words” value in experiment [1] (text b102 on Table 4) was “moderate to low levels of trypsin inhibitory activity”.

On to `CC(=O)[O-].CC(=O)[O-].[Zn+2]` [Zinc acetate dihydrate], for which, in experiment [1] (Table 3, 0.1% (g/mL)), the “Salt alone, trypsin inhibition activities (%)” value stood at 62.84%.

With `[Cl-].[Cl-].[Zn+2]` [Zinc chloride], in experiment [1] (Table 3, 0.1% (g/mL)), the “Salt alone, trypsin inhibition activities (%)” value was 81.07%.

For `[O]=[Zn]` [ZnO, zinc oxide], the “trypsin inhibitory activity, in words” value in experiment [2] is “minimal protease activity”.

As for “copper (II) chloride [(II) chloride dihydrate]”, the “% trypsin inhibitory activity” value in experiment [3] (concentration 0.01% (g/mL)) came out at 64.98%; in experiment [3] (concentration 0.10% (g/mL)), 99.34%; in experiment [3] (concentration 1% (g/mL)), 108.34%.

The record behind these values is patent US20130004580A1, “DIVALENT CATION/TALC CONTAINING COMPOSITIONS AND METHODS FOR TREATING AND/OR PREVENTING ENZYMATIC IRRITATION” (priority 2011, published 2013).
